Data as given in US20120220480A1, “METHOD FOR THE DETECTION OF RENAL DAMAGE” (UNIVERSIDAD DE SALAMANCA, priority 2009, published 2012).
Marks after values point to notes of the source that are not given here.

Tests used:
[1] = tested on: Female Wistar rats; experiment: Gentamicin-induced kidney damage in rats: survival, body weight, serum and urine biochemical measurements
Procedure: (§1) Female Wistar rats were used weighing 200-250 g. The animals were allocated under controlled environmental conditions in individual metabolic cages, for individual urine sample collection every 24 hours. Normal feed and water were administered ad libitum. […] On day 7, the animals were anaesthetised with sodium pentobarbital and the kidneys were perfused by the aorta with saline (0.9% NaCl) to eliminate the blood. The kidneys were immediately dissected. One was frozen in liquid nitrogen and subsequently kept at −80° C. for Western blot studies, and the other was soaked in p-formaldehyde at 3.7% for histological studies. Blood samples were also obtained in heparinised capillaries at different time points by a small incision in the tail tip. Blood was centrifuged and serum was kept at −80° C. until use. Urine was cleared by centrifugation at 10,000 g and 4° C. during 10 minutes, and kept at −80° C. until use.
Serum and urinary creatinine and urea nitrogen concentration were measured using commercial reactive strips (Roche Diagnostics) and the Reflotron® automated analyser (Roche Diagnostics). […] Urine protein concentration was measured by the Bradford method (Bradford, 1976. Anal Biochem, 72: 248-254). Urine NAG content was indirectly determined by the level of NAG activity. NAG enzymatic activity was determined by a colorimetric method based on the conversion of 3-cresolsulfonphthaleinyl-N-acetyl-D-glucosaminide into the purple 3-cresol-cresolsulfonphthaleinyl, measured at 580 nm using a plate photometer (Thermo). To measure NAG activity a commercial kit was used (Roche Diagnostics) following the manufacturer's instructions.

[2] = tested on: gelsolin; experiment: Western blot analysis of gelsolin in urine and serum of treated rats
Procedure: as §1
Western blots were run with (i) urine samples (21 μl per sample), (ii) tissue extracts (100 μg total protein per sample) prepared by homogenizing the kidneys with a tissue mixer (Ultra-Turrax T8, IKA®-Werwe) at 4° C. in homogenization buffer (140 mM NaCl, 20 mM Tris-HCl pH=7.5, […] ethylenediaminetetraacetic acid—EDTA-, 10% glycerol, 1% Igepal CA-630, 1 μg/mL aprotinin, 1 μg/mL leupeptin, 1 μg/mL pepstatin A, 1 mM phenylmethylsulphonyl fluoride—PMSF—), or (iii) albumin-free blood serum. Albumin was removed from serum with a column-based, commercial kit based on the immunological retention of rat albumin (Qproteome Murine Albumin Depletion Kit, Quiagen). Samples were separated by electrophoresis in 10-15% acrylamide gels (Mini Protean II system, BioRad). Immediately, proteins were electrically transferred to an Immobilon-P membrane (Millipore). Membranes were probed with antibodies against KIM-1 (R&D Systems), bone morphogenetic protein 7 (BMP-7, Santa Cruz Biotechnology), NGAL (MBL), PAI-1 (BD Biosciences), reg IIIb (R&D Systems), and gelsolin (Santa Cruz Biotechnology).

[3] = tested on: gelsolin; experiment: Renal tissue gene expression by RT-PCR, gelsolin; assay type: in vivo, rat; conditions: 3 and 6 days treatment (FIG. 8)
Procedure: (§2) Female Wistar rats were used weighing 200-250 g. […] Normal feed and water were administered ad libitum. […] The kidneys were immediately dissected.
(§3) RT-PCR-amplification of reg IIIb, gelsolin and GAPDH was performed with the next primers: for rat reg IIIb, SEQ ID NO: 15 and SEQ ID NO: 16; for rat gelsolin, SEQ ID NO: 17 and SEQ ID NO: 18; for rat glyceraldehyde 3-phosphate dehydrogenase (GAPDH), SEQ ID NO: 19 and SEQ ID NO: 20. PCR conditions were: 1×(95° C.×4 min); 30×(95° C.×1 min+Tm×1 min); 1×72° C.×10 min); where Tm was 55.5° C. for reg IIIb, 55.0° C. for gelsolin, and 55.9° C. for GAPDH.

[4] = tested on: reg IIIb; experiment: Western blot analysis of reg IIIb in urine and serum of treated rats
Procedure: Female Wistar rats were used weighing 200-250 g. The animals were allocated under controlled environmental conditions in individual metabolic cages, for individual urine sample collection every 24 hours. Normal feed and water were administered ad libitum. […] On day 7, the animals were anaesthetised with sodium pentobarbital and the kidneys were perfused by the aorta with saline (0.9% NaCl) to eliminate the blood. The kidneys were immediately dissected. One was frozen in liquid nitrogen and subsequently kept at −80° C. for Western blot studies, and the other was soaked in p-formaldehyde at 3.7% for histological studies. Blood samples were also obtained in heparinised capillaries at different time points by a small incision in the tail tip. Blood was centrifuged and serum was kept at −80° C. until use. Urine was cleared by centrifugation at 10,000 g and 4° C. during 10 minutes, and kept at −80° C. until use. […]

[5] = tested on: reg IIIb; experiment: Renal tissue gene expression by RT-PCR, reg IIIb; assay type: in vivo, rat; conditions: as early as on day 3, highest on day 6 (FIG. 8-A)
Procedure: as §2, §3

[6] = tested on: Kidney sections; experiment: Renal histopathological study (hematoxilin and eosin stained kidney sections); assay type: in vivo, rat; conditions: rats
Procedure: as §2
The kidneys were kept in p-formaldehyde all night at 4° C. Next, paraffin blocks were made and 5-μm tissue sections were cut and stained with hematoxilin and eosin. Photographs were taken under an Olympus BX51 microscope connected to an Olympus DP70 colour digital camera.

[7] = Leehey D J et al., 1993; cited from earlier work
[8] = rats, gentamicin i.p. 150 mg/kg, after 7 days treatment

| Molecule | Renal failure (serum creatinine concentration and BUN) ([1]; rat, in vivo) | Full length gelsolin band in urine ([2]; rat, in vivo) | ~43 kDa gelsolin fragment (t-gelsolin) band in urine ([2]; rat, in vivo) | Proteinuria [1, 8] | Urine flow [1, 8] | Δ Weight (body weight as a percentage of the initial weight) [1, 8] | Renal expression pattern of gelsolin [3] | Day on which reg IIIb appears in the urine ([4]; rats, time course of treatment, Western blot (FIG. 7)) | Urinary level of reg IIIb ([4]; urine of rats with overt renal failure, Western blot (FIG. 6-A)) | Renal reg IIIb gene expression [5] | Renal histopathology after 3 days of treatment ([6]; after 3 days of treatment (FIG. 7)) | Renal histopathology at end of treatment ([6]; hematoxilin-eosin, end of treatment (FIG. 2)) | Proportion of treatments in which nephrotoxicity appears [7] | Full length gelsolin band in urine ([2]; urine of rats with overt renal failure, Western blot (FIG. 6)) |
| --- | --- | --- | --- | --- | --- | --- | --- | --- | --- | --- | --- | --- | --- | --- |
| N.N.[Cl][Pt][Cl] [cisplatin] | developed an overt renal failure | absent in the urine from all of the rats treated with cisplatin, except for one of them | common to both gentamicin and cisplatin groups | – | – | – | – | – | – | – | – | – | – | – |
| gentamicin | – | – | – | 40 ± 7.4^a mg/day | 18 ± 3^a mL/day | 95 ± 3^a % | does not modify | 4 days | markedly increased | induces an increase | no findings of tubular damage | clear tubular necrosis | 10-25% | induces the appearance |
